Laboratory results from publication PMC9477735, “Phosphorylation of muramyl peptides by NAGK is required for NOD2 activation” (Nature, 2022).

Assays:
[1] = biological target: T1, N-acetylglucosamine kinase (NAGK) (Homo sapiens, UniProt Q9UJ70); experiment: in vitro kinase assay with [γ-32P]ATP and TLC; assay type: biochemical
T1 construct: full-length human NAGK, recombinant from E. coli, His-MBP tag removed

[2] = biological target: T1, N-acetylglucosamine kinase (NAGK); experiment: in vitro kinase assay with [γ-32P]ATP and TLC; LC-MS/MS; NMR of product; assay type: biochemical

T1 sequence (Q9UJ70 2-344): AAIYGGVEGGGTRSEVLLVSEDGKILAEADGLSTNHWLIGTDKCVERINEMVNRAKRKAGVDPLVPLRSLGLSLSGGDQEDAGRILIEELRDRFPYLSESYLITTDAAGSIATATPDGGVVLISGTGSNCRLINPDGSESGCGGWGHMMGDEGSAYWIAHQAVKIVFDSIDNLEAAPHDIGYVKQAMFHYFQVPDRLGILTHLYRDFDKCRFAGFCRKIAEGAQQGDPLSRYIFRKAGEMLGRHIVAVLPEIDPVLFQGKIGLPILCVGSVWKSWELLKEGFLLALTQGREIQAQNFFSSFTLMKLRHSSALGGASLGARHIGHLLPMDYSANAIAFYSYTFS

SMILES | in vitro kinase assay with [γ-32P]ATP and TLC [1] | in vitro kinase assay with [γ-32P]ATP and TLC; LC-MS/MS; NMR of product [2]
CC(=O)N[C@H]1C(O)O[C@H](CO)[C@@H](O)[C@@H]1O (some centres unmarked) [GlcNAc, N-acetylglucosamine] | to similar levels as its bona fide substrate GlcNAc (Fig. 3b) | 
CC(=O)N[C@H]1C(O)O[C@H](CO)[C@@H](O)[C@@H]1O[C@H](C)C(=O)N[C@@H](C)C(=O)N[C@H](CCC(=O)O)C(N)=O (some centres unmarked) [MDP] |  | These assays revealed that NAGK readily phosphorylated MDP and the related molecule N-acetylmuramic acid (MurNAc)
